Reference: patent US20250082630A1, “METHODS OF TREATING BRAIN TUMOURS AND NEUROBLASTOMAS” (AstraZeneca AB, priority 2021, published 2025)

Assays:
U87 IDH1mt ATRXwt = test: Monotherapy treatment, U87 IDH1mt ATRXwt; assay type: cell-based; details: read-out: Compound 20 IC50
Protocol: (§1) To evaluate the activity and potency of the PARP inhibitors described herein in combination with the standard of care chemotherapy Temozolamide (TMZ), ionizing radiation (IR) and the emerging chemotherapy VAL-083, U87, SJG2 and BT245 glioblastoma cells were assayed. Parental U87 cell lines were obtained from the AstraZeneca Global Cell Bank in Alderley Park, UK and the isocistrate dehydrogenase 1 mutant cell line (IDH1 mt R1 32H) was licensed in from ATCC. The SJ-G2 (ATRX mutant) and BT245 (H3K27M mutant) cell lines were obtained from The Research Institute of the McGill University Health Centre, Montreal, QC H4A 3J1, Canada. IDH1R132 mutation was induced in SJG2 cell line to generated isogenic pair (SJG2 IDH1mt and SJG2 IDH1 wt). […]
(§2) For the nuclear count end point assay, cells were fixed for ˜15 minutes (min) by the addition of 50 μl per well of Formaldehyde (Sigma-Aldrich F8775). […] The images were acquired using CellInsight CX5 (Thermo Fisher) and analysed by measuring the total number of hoechst stained nuclei. The number of nuclei (% confluence) of the drug treated wells were normalised to the DMSO control and the growth inhibition was calculated using the combenefit software (Di Veroli et al., 2016).

[1] = tested on: SJ-G2 IDH1 wt and IDH1mt isogenic pairs; test: Combination assay PARP inhibitor with VAL-083, SJ-G2 isogenic pairs; assay type: cell-based
Protocol: as §1, §2

SJ-G2 IDH1wt ATRXmt = test: Monotherapy treatment, SJ-G2 IDH1wt ATRXmt; assay type: cell-based
Protocol: DMSO served as a vehicle control.
The plates were washed again and PBS was added.

[2] = tested on: SJ-G2 IDH1 wt and IDH1mt isogenic pairs; test: Combination assay PARP inhibitor with TMZ, SJ-G2 isogenic pairs; assay type: cell-based
Protocol: as §1, §2

BRCA2 (−/−) DLD1 cells = test: PARP proliferation assay (7 day compound dosing), BRCA2 (−/−) DLD1; assay type: cell-based; details: Homo sapiens, DLD-1, 168 h, read-out: BRCA2 −/− DLD-1 prolif. 7 d IC50
Protocol: (§3) DLD1 and BRCA2 (−/−) DLD1 cells were harvested to a density of 5000 cells/ml and 2.5E4 cells/ml respectively in complete media, 40 μL/well seeded into 384-well plates (Greiner, Kremsmunster, Austria; 781090) using a Multidrop Combi then incubated at 37° C., 5% CO2 overnight. Next day (Day 1) using a Multidrop Combi add sytox green (5ul, 2 uM) and saponin (10 ul, 0.25% stock) to a day 0 plate, seal the plate using a black adhesive lid and incubate for >3 h at it. Cells were imaged using Cell Insight (Thermo Fisher) fitted with a 4x objective. Test compounds are added using an Echo 555 and placed in incubator maintained at 37° C., 5% CO2 and incubated for 7 days. On Day 8 add sytox green (5ul, 2 uM) and then saponin (10 ul, 0.25% stock) to plates, seal the plate using a black adhesive lid and incubate for >3 h at it. Read all cells on the Cell Insight with 4× Objective. The rate of proliferation is determined in Genedata by assessing the total cell number output from the Cell Insight for Day 0 and Day 8 plates.

DLD1 cells = test: PARP proliferation assay (7 day compound dosing), WT DLD1; assay type: cell-based; details: Homo sapiens, DLD-1, 168 h, read-out: WT DLD-1 prolif. 7 d IC50
Protocol: as §3

SJ-G2 IDH1mt ATRXmt = test: cells; details: SJ-G2, read-out: Compound 20 IC50
Protocol: as §1, §2

PARP1 = PARP1 (Homo sapiens (Human), UniProt P09874); test: PARP1 trapping; assay type: cell-based; details: data not shown
Chain of PARP1 (P09874 whole entry): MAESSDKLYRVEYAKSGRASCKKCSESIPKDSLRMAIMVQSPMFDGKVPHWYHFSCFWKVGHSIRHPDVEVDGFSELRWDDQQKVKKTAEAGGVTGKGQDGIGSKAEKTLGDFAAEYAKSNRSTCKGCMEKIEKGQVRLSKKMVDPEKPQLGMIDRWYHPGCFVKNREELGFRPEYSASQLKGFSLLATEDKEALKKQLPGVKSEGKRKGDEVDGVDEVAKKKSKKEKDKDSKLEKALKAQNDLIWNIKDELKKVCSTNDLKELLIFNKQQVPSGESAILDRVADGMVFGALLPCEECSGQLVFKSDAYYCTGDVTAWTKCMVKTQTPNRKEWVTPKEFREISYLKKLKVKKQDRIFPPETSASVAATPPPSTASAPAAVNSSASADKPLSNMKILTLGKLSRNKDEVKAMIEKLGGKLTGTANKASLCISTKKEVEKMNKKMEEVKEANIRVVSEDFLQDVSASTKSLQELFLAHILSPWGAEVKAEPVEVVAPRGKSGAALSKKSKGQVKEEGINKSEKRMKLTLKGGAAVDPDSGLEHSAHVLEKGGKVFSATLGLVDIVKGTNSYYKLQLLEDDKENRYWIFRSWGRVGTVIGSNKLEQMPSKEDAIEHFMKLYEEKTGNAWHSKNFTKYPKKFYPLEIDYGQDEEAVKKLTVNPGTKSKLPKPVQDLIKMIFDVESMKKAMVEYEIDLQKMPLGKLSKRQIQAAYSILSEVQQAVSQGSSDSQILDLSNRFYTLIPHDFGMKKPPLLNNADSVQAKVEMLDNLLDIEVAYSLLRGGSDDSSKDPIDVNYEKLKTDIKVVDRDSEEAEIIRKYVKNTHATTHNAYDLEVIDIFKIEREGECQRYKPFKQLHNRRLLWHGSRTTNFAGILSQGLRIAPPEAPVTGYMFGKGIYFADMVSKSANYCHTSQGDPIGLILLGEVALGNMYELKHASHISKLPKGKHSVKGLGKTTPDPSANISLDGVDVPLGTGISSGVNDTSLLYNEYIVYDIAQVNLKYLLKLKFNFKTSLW

U87 IDH1 mt R132H = test: Combination assay PARP inhibitor with TMZ, U87 IDH1mt; assay type: cell-based
Protocol: as §1, §2

U87MG xenograft = assay type: in vivo, female Nude mice; details: Compound 20 3 mg/kg QD in combination with TMZ 6.25 mg/kg QD on days 1-5 and 29-33, PO
Protocol: U87MG cells (2.5 million in serum-free MEM medium) were implanted subcutaneously (SC) into the dorsal flank of female Nude mice (weight greater than 18 g). Tumours were measured (length x width) two times weekly by bilateral Vernier calliper measurements and tumour volume was calculated using elliptical formula (π/6×width×width×length). Animal bodyweight and tumour condition were monitored throughout the study. Mice were randomised into treatment groups when mean tumour volume reached approximately 0.2 cm^3.
Animals were treated orally (PO) from the day after the randomisation. Control animals were treated with vehicle (water/methane sulfonic acid (MSA) pH3-3.2) once daily for 10 days (QD×10). PARP inhibitor in water/MSA pH3-3.2 was dosed in the monotherapy and combination groups at 3 mg/kg QD×10 or QD×33, respectively. Temozolomide (TMZ) in OraPlus Perrigo was dosed in the monotherapy group at 25 mg/kg QD on days 1-5 and 29-33, and in monotherapy and combination group at 6.25 mg/kg QD on days 1-5 and 29-33.
Tumour growth inhibition from start of treatment was assessed by comparison of the mean change in tumour volume (TV) of the control and treated groups and represented as percent tumour growth inhibition (TGI, when tumour volume (TV) >starting TV) or tumour regression (reg, when TV<starting TV). Statistical significance was evaluated using a one-tailed t test. Statistical significance is indicated as follows: *p:0.05, **p:0.01, ***p:0.001.

In the case of `CNC(=O)c1ccc(N2CCN(Cc3ccc4nc(C)c(=O)[nH]c4c3F)CC2)c(F)n1` [Example 20, 6-fluoro-5-[4-[(5-fluoro-2-methyl-3-oxo-4H-quinoxalin-6-yl)methyl]piperazin-1-yl]-N-methyl-pyridine-2-carboxamide], the IC50 (U87 IDH1mt ATRXwt) is reported as greater than 100000 nM, the “activity in the absence of VAL-083” value ([1]; 1 μM Compound 20, ATRX mutant cell lines) is reported as “has activity” and the “combination effect with VAL-083” value ([1]; SJ-G2 IDH1 wt and IDH1mt, ATRX mutant) is reported as “enhanced combination benefit”. For the same molecule, the IC50 (SJ-G2 IDH1wt ATRXmt; SJ-G2, read-out: Compound 20 IC50) was 2340 nM, the “higher sensitivity compared to the ATRXwt U87 model” value (SJ-G2 IDH1wt ATRXmt; SJ-G2 ATRXmt model, monotherapy) was “about 40 fold” and the “lowest PARP inhibitor concentration significantly enhancing the TMZ effect” value [2] was 10 nM. It also gave an IC50 (BRCA2 (−/−) DLD1 cells) of 8 nM, an IC50 (DLD1 cells) greater than 30000 nM and an IC50 (SJ-G2 IDH1mt ATRXmt) of 1750 nM. For the same molecule, the “lowest concentration with potent trapping of PARP1” value (PARP1) was 10 nM, the “concentration at which Compound 20 synergises with TMZ” value (U87 IDH1 mt R132H; U87 IDH1mt) was 1 µM and the “lower concentration for synergy with TMZ in IDH1mt compared to wild type” value (U87 IDH1 mt R132H; U87 IDH1mt vs IDH1 wt) was 10 fold. For the same molecule, the tumour regression (U87MG xenograft) was 95% and the tumours regressed (U87MG xenograft) was 8/8.
